The record followed here is EPA's ToxValDB 9.5 (doi:10.2903/j.efsa.2010.1856).

A word on the NOAEL: it is the highest dose or exposure tested at which no adverse effect was seen.

The structures appear in SMILES notation. Converted amounts (≈) assume the structure as drawn.

One data set deals with Oncorhynchus mykiss. The settings on record: mortality.
A further data set concerns Daphnia magna. The settings on record: chronic/long-term; duration: 21 days; reproduction.
The test system of a further data set is Rattus norvegicus. The settings on record: chronic; duration: 2 years; histopathology: nonneoplastic.
The next data set deals with Colinus virginianus. The settings on record: reproduction developmental.
For a further data set, the system named is Phasianus sp. The settings on record: acute; oral; unspecified; mortality.
In a further data set the test system is Anatidae. The settings on record: short-term; oral; feed; mortality.
For a further data set, the system named is Apis mellifera. The settings on record: acute; duration: 48 hours; oral; unspecified; mortality.
The next data set concerns Canidae. The settings on record: chronic, duration: 1 years, oral, Dog Other.
For another data set, the system named is Coturnix japonica. The settings on record: acute, oral, mortality.
The subject of another data set is Aphidius rhopalosiphi. In words: LR50; higher = less toxic. The settings on record: not reported; mortality.
The next data set relates to Typhlodromus pyri. As to the kind of experiment: LR50; higher = less toxic. The settings on record: not reported; mortality.

For the molecule `CC1OC(C)OC(C)OC(C)O1` (stereo not drawn) [2,4,6,8-Tetramethyl-1,3,5,7-tetroxocane], the LC50 is 75 µg/mL (≈ 426 µM) with Oncorhynchus mykiss (acute, duration: 96 hours); 3450 mg/kg in the data set on Anatidae; more than 1000 mg/kg in the data set on Tagia sp. (acute, duration: 14 days, mortality); 3460 mg/kg in the data set with Coturnix japonica (diet). Also, the NOEC in the data set on Oncorhynchus mykiss (chronic/long-term, duration: 21 days) was 37.5 mg/L; with Anas platyrhynchos (reproductive), 175 mg/kg; with Daphnia magna, 90 mg/L; in the data set with Colinus virginianus, 500 mg/kg-day; in the data set on Tagia sp. (chronic/long-term, reproduction) it was 32 mg/kg. The LD50 in the data set with Anas platyrhynchos (acute, oral, unspecified, mortality) is 196 mg/kg-day; in the data set with Phasianus sp., 262 mg/kg-day; in the data set on Apis mellifera, more than 87.5 µg/piece; in the data set on Coturnix japonica it was 170 mg/kg-day. Also, the NOAEL in the data set on Rattus norvegicus worked out at 2 mg/kg-day; in the data set with Canidae (mortality), 10 mg/kg-day; in the data set on Canidae (neurology) it was 30 mg/kg-day. The LR50 with Aphidius rhopalosiphi and in the data set with Typhlodromus pyri was more than 350 g/ha throughout.
